The test system of test [1] is Trichophyton rubrum. In words: Antifungal activity against Trichophyton rubrum Cmccftla after 24 hrs to 1 week. The format is functional.
The test system of test [2] is Cryptococcus neoformans. Kind of test: Antifungal activity against Cryptococcus neoformans ATCC 32609 after 24 hrs to 1 week. In kind it is functional.
In test [3] the test system is A549. In words: Cytotoxicity against human A549 cells by MTT assay. The format is cell-based. For orientation: Formazan colour is commonly taken as a measure of viable cells.
The test system of test [4] is Nakaseomyces glabratus. Kind of test: Antifungal activity against Candida glabrata ATCC 537 after 24 hrs to 1 week. In kind it is functional.
Test [5] concerns HL-60. In words: Cytotoxicity against human HL60 cells by MTT assay. The format is cell-based.
For test [6], the system named is Aspergillus fumigatus. Kind of test: Antifungal activity against Aspergillus fumigatus ATCC 07544 after 24 hrs to 1 week. In kind it is functional.

≈ marks a conversion by molar mass, not a printed value.

What is called MIC80 is the lowest concentration that inhibits either 80% of growth or 80% of the strains tested, depending on the study. Read a low MIC80 as higher susceptibility. As usually defined, the IC50 is the concentration that inhibits the measured activity by half. Lower therefore signals greater potency. On to `Cc1ccc(C)c(/C=C/C(C)(C)O)c1/C=C/C(C)(C)O`, for which the MIC80 in test [1] is 64 µg/mL (≈ 233 µM); in test [2], 64 µg/mL (≈ 233 µM); in test [4] it was 64 µg/mL (≈ 233 µM); in test [6], at least 64 µg/mL. Further, the IC50 in test [3] and in test [5] was at least 100 µM in each case.

As to `CC(C)=C[C@H]1c2c(C)ccc(C)c2[C@@H](O)[C@@H]1C(C)(C)O` (relative stereo), the MIC80 is 16 µg/mL (≈ 58.3 µM) in test [1], 4 µg/mL (≈ 14.6 µM) in test [2], 4 µg/mL (≈ 14.6 µM) in test [4] and at least 64 µg/mL in test [6]. The 50% inhibitory concentration (IC50) in test [3] and in test [5] was at least 100 µM each time.

Take `C[C@@H]1[C@H](O)[C@@H](C)/C=C/C=C/C=C/C=C/C=C/C=C/C=C/[C@H](O[C@@H]2O[C@H](C)[C@@H](O)[C@H](N)[C@@H]2O)C[C@@H]2O[C@](O)(C[C@@H](O)C[C@@H](O)[C@H](O)CC[C@@H](O)C[C@@H](O)CC(=O)O[C@H]1C)C[C@H](O)[C@H]2C(=O)O` [AMPHOTERICIN B]: the MIC80 is 1 µg/mL (≈ 1.08 µM) in test [1], 4 µg/mL (≈ 4.33 µM) in test [2] and 2 µg/mL (≈ 2.16 µM) in test [4].

The molecule `COc1cccc2c1C(=O)c1c(O)c3c(c(O)c1C2=O)C[C@@](O)(C(=O)CO)C[C@@H]3O[C@H]1C[C@H](N)[C@H](O)[C@H](C)O1` [DOXORUBICIN] had an IC50 in test [5] of 0.12 µM.
